Data taken from US12551436B2, “Dosing regimens for treatment of proliferative disorders” (priority 2018, dated 2026).
Several values for one entry are separate records, joined by “and”; a condition that tells them apart may be missing. Identical values can stand only once. Like-named read-outs stand apart in the source and are kept apart here.

Assay: Pharmacokinetics of curcumin and THC in plasma during and after liposomal curcumin infusion
Assay type: in vivo, human
Details: for AUC(0-t): read-out: AUC0-Tlast
Protocol: Patient #21 was excluded from the PK analysis because the infusion was interrupted for 1.5 h.
Pharmacokinetic assessments. […] Samples for infusion #1 were collected at baseline (BL), 2 h after start of infusion and after end of infusion at 0 min=EOI, 10 min, 20 min, 30 min, 45 min, 60 min and 120 min and at EOI for infusions #2, #3, #5 and #8. […] The number of blood collections remained unchanged.

[1] = plasma THC, first liposomal curcumin infusion, DL 3: 150 mg/m^2, 8 h infusion, patient 17
[2] = plasma THC, first liposomal curcumin infusion, DL 4: 190 mg/m^2, 8 h infusion, Mean, patient #19 not included
[3] = plasma THC, first liposomal curcumin infusion, DL 4: 190 mg/m^2, 8 h infusion, individual patients
[4] = plasma THC, first liposomal curcumin infusion, DL 6: 300 mg/m^2, 8 h infusion, Mean
[5] = plasma THC, first liposomal curcumin infusion, DL 6a: 300 mg/m^2, 6 h infusion, Mean
[6] = plasma THC, first liposomal curcumin infusion, DL 6a: 300 mg/m^2, 6 h infusion, individual patients

With `COc1cc(/C=C/C(=O)CC(=O)/C=C/c2ccc(O)c(OC)c2)ccc1O` [Curcumin, (1E6E)-1,7-bis(4 hydroxy-3-methoxyphenyl)-1,6-heptadiene-3,5 dione] the Cmax (human, in vivo, 240 mg/m^2, plasma curcumin, first liposomal curcumin infusion, DL 5: 240 mg/m^2 8 h infusion, Mean, read-out: Cmax) was 647 ng/mL and the Tmax (human, in vivo, mean Tmax for curcumin) was 3.6 to 4 h.
With `COc1cc(CCC(=O)CC(=O)CCc2ccc(O)c(OC)c2)ccc1O` [tetrahydrocurcumin] the plasma samples (DL 1-DL 3 (100 to 150 mg/m^2), patients with only one blood collection during infusion, most samples) was “below the limit of quantification”, the AUC(0-t) (human, in vivo, 150 mg/m^2, plasma THC, first liposomal curcumin infusion, DL 3: 150 mg/m^2, 8 h infusion, patient 17) was 59 ng·h/mL and the Cmax (human, in vivo, 150 mg/m^2, plasma THC, first liposomal curcumin infusion, DL 3: 150 mg/m^2, 8 h infusion, patient 17, read-out: Cmax) was 16.1 ng/mL. For the same compound, the Tmax (human, in vivo, 150 mg/m^2, plasma THC, first liposomal curcumin infusion, DL 3: 150 mg/m^2, 8 h infusion, patient 17, read-out: Tmax) was 4 h, the AUC(0-t) (human, in vivo, 190 mg/m^2, plasma THC, first liposomal curcumin infusion, DL 4: 190 mg/m^2, 8 h infusion, Mean, patient #19 not included) was 27 ng·h/mL and the Cmax (human, in vivo, 190 mg/m^2, plasma THC, first liposomal curcumin infusion, DL 4: 190 mg/m^2, 8 h infusion, Mean, patient #19 not included, read-out: Cmax) was 7.2 ng/mL. It also gave a Tmax (human, in vivo, 190 mg/m^2, plasma THC, first liposomal curcumin infusion, DL 4: 190 mg/m^2, 8 h infusion, Mean, patient #19 not included, read-out: Tmax) of 5 h, an AUC(0-t) (human, in vivo, 300 mg/m^2, plasma THC, first liposomal curcumin infusion, DL 6: 300 mg/m^2, 8 h infusion, Mean) of 344 ng·h/mL and a Cmax (human, in vivo, 300 mg/m^2, plasma THC, first liposomal curcumin infusion, DL 6: 300 mg/m^2, 8 h infusion, Mean, read-out: Cmax) of 74.4 ng/mL. The Tmax (human, in vivo, 300 mg/m^2, plasma THC, first liposomal curcumin infusion, DL 6: 300 mg/m^2, 8 h infusion, Mean, read-out: Tmax) was 2.5 h, the AUC(0-t) (human, in vivo, 300 mg/m^2, plasma THC, first liposomal curcumin infusion, DL 6a: 300 mg/m^2, 6 h infusion, Mean) was 326 ng·h/mL and the Cmax (human, in vivo, 300 mg/m^2, plasma THC, first liposomal curcumin infusion, DL 6a: 300 mg/m^2, 6 h infusion, Mean, read-out: Cmax) was 70.3 ng/mL. For the same compound, the Tmax (human, in vivo, 300 mg/m^2, plasma THC, first liposomal curcumin infusion, DL 6a: 300 mg/m^2, 6 h infusion, Mean, read-out: Tmax) was 3.7 h, the “AUC0-TLast of THC as percentage of curcumin” value (mean across individual patients) was 8.5% and the Clast [1] was 10.3 ng/mL. For the same compound, the Tlast [1] was 6.0 h, the Clast [2] was 7.2 ng/mL and the Tlast [2] was 5.0 h. The AUC0-Tlast [3] was 22 ng·h/mL and 1656 ng·h/mL and 31 ng·h/mL, the Clast [3] was 7.7 ng/mL and 11.8 ng/mL and 6.6 ng/mL and the Cmax [3] was 7.7 ng/mL and 396.1 ng/mL and 6.6 ng/mL. The Tlast [3] was 4.0 h and 8.8 h and 6.0 h, the Tmax [3] was 8.1 h and 6.0 h and the Clast [4] was 21.8 ng/mL. It also gave a Tlast [4] of 7.7 h, a Clast [5] of 6.2 ng/mL and a Tlast [5] of 6.6 h. The AUC0-Tlast [6] was 497 ng·h/mL and 155 ng·h/mL and 385 ng·h/mL and 332 ng·h/mL and 321 ng·h/mL and 264 ng·h/mL, the Clast [6] was 6.9 ng/mL and 5.2 ng/mL (2×) and 6.0 ng/mL and 8.4 ng/mL and 5.7 ng/mL and the Cmax [6] was 110.4 ng/mL and 35.1 ng/mL and 80.1 ng/mL and 67.6 ng/mL and 70.7 ng/mL and 58.3 ng/mL. For the same compound, the Tlast [6] was 6.8 h (2×) and 7.3 h and 6.0 h and 6.6 h and 6.2 h, the Tmax [6] was 2.0 h and 5.9 h and 5.8 h and the “AUC0-TLast of THC as percentage of curcumin” value (range across individual patients) was 2.1%-21.8%.
